ChEMBL document CHEMBL1128130, “Hydroxamate inhibitors of human gelatinase B (92 kDa)” (Bioorg Med Chem Lett, 1995)
Values belong to the compound of their own block, whether it stands above or below them.

Key:
[1] = target: T1, Interstitial collagenase (Homo sapiens, UniProt P03956)
T1 sequence (P03956 whole entry): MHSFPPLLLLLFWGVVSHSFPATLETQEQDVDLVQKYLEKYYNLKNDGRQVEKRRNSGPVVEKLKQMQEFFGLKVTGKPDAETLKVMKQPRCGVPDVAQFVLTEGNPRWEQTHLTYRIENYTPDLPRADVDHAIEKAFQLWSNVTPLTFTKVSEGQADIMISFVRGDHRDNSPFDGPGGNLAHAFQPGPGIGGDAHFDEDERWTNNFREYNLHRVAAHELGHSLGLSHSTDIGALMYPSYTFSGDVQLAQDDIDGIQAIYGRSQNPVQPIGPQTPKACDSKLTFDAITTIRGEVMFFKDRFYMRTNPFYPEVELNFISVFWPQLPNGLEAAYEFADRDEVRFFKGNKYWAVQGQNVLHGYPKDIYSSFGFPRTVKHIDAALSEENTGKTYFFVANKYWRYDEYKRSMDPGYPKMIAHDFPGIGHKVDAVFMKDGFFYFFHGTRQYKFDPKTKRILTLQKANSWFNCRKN
Description: Inhibition of human fibroblast collagenase, matrix metalloprotease-1

[2] = target: Matrix metalloproteinase-9 (Homo sapiens, UniProt P14780)
Sequence of Matrix metalloproteinase-9 (P14780 whole entry): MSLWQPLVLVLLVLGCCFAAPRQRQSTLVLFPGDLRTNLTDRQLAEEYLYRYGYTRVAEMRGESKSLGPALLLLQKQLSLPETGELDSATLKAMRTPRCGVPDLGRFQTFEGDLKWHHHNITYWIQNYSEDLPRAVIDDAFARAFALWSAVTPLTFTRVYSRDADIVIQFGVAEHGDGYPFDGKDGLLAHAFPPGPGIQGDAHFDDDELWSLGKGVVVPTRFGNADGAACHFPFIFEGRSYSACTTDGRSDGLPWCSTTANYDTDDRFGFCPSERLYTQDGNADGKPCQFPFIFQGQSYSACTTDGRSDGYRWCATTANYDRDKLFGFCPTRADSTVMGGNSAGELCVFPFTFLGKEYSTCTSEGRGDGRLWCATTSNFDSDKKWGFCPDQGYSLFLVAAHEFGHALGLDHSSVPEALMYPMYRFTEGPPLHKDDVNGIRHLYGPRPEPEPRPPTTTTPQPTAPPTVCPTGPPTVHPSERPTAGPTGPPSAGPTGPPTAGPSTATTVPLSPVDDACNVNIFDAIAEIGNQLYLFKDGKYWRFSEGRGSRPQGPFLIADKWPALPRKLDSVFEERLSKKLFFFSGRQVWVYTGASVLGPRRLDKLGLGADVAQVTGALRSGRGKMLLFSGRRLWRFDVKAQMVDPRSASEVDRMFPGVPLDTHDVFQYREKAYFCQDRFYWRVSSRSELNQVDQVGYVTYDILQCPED
Description: Inhibition of human Matrix metalloprotease-9

[3] = target: Neutrophil collagenase (Homo sapiens, UniProt P22894)
Sequence of Neutrophil collagenase (P22894 whole entry): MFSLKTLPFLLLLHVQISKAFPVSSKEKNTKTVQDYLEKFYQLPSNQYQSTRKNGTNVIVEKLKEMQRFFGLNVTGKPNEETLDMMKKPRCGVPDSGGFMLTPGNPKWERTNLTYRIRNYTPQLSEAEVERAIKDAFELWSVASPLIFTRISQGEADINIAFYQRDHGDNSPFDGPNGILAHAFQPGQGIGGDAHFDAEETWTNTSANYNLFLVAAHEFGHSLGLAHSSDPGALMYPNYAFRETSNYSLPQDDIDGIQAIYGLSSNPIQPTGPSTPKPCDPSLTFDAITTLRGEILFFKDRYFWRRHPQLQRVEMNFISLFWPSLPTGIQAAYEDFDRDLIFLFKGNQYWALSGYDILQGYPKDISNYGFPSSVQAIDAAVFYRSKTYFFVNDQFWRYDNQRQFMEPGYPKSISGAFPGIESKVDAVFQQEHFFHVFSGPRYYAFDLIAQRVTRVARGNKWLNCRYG
Description: Inhibition of human Matrix metalloprotease-8

[4] = target: Stromelysin-1 (Homo sapiens, UniProt P08254)
Sequence of Stromelysin-1 (P08254 whole entry): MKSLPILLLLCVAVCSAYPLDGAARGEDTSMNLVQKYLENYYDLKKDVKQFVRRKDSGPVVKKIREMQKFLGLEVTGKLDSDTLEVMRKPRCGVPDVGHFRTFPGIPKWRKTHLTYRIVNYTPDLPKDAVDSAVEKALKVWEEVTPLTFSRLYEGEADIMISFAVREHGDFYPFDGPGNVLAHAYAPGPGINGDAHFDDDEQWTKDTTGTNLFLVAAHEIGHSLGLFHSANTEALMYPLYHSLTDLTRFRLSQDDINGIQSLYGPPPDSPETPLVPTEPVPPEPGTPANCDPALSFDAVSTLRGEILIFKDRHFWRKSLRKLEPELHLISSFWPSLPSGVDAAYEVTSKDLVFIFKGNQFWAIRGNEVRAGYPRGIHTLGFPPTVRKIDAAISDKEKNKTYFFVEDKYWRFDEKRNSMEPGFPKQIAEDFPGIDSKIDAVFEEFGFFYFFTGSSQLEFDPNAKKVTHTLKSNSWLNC
Description: Inhibition of human fibroblast stromelysin, matrix metalloprotease-3

SMILES: CNC(=O)[C@H](Cc1c[nH]c2ccccc12)NC(=O)[C@H](C)CC(=O)NO
Ki [1]: 8.5 µM | Ki [2]: 0.5 µM | Ki [3]: 4.2 µM | Ki [4]: 40 µM

Ki [2]: 0.0033 µM
SMILES: CNC(=O)[C@H](Cc1ccccc1)NC(=O)[C@H](CCCCOCc1ccccc1)CC(=O)NO

SMILES: CCCCC[C@H](CC(=O)NO)C(=O)N[C@H](C(=O)N1CCCC1CO)C(C)C (some centres undefined)
Ki [1]: 0.3 µM | Ki [2]: 0.33 µM | Ki [3]: 0.19 µM | Ki [4]: 1.7 µM

SMILES: CNC(=O)[C@H](Cc1ccccc1)NC(=O)[C@H](CCCCCCc1ccccc1)CC(=O)NO
Ki [1]: 8.4 µM | Ki [2]: 0.0013 µM | Ki [3]: < 0.002 µM | Ki [4]: 0.011 µM

SMILES: CNC(=O)CNC(=O)[C@H](CCCCOCc1ccccc1)CC(=O)NO
Ki [1]: > 0.1 µM | Ki [2]: 5.6 µM | Ki [3]: 0.17 µM | Ki [4]: 3.5 µM

Ki [2]: 0.0012 µM
SMILES: CNC(=O)[C@H](Cc1ccccc1)NC(=O)[C@H](CCCCOc1ccccc1)CC(=O)NO

Ki [2]: 0.0014 µM
SMILES: CNC(=O)[C@H](Cc1ccccc1)NC(=O)[C@@H](CC(=O)NO)CC(C)C

SMILES: CNC(=O)[C@@H](NC(=O)[C@H](CCCCOCc1ccccc1)CC(=O)NO)C(C)(C)C
Ki [2]: 0.011 µM | Ki [3]: 0.0047 µM | Ki [4]: 0.039 µM

SMILES: CNC(=O)[C@H](Cc1c[nH]c2ccccc12)NC(=O)[C@@H](CC(=O)NO)CC(C)C [ILOMASTAT]
Ki [4]: 0.046 µM

Ki [2]: 0.0038 µM
SMILES: CCCCCc1ccc(OCCCC[C@H](CC(=O)NO)C(=O)N[C@H](C(=O)NC)C(C)(C)C)cc1

Ki [2]: 0.00031 µM
SMILES: CNC(=O)[C@H](Cc1ccccc1)NC(=O)[C@H](CCCCCOc1ccccc1)CC(=O)NO

SMILES: CC[C@H](CC(=O)NO)C(=O)N[C@@H](Cc1c[nH]c2ccccc12)C(=O)NC
Ki [1]: 0.18 µM | Ki [2]: 0.02 µM | Ki [3]: 0.1 µM | Ki [4]: 2.7 µM
